From patent publication US20130204033A1, “ANTIPROLIFERATIVE COMPOUNDS, CONJUGATES THEREOF, METHODS THEREFOR, AND USES THEREOF” (Medarex, Inc., priority 2009, published 2013) come the findings set out here.

Format in all cases: cell-based, human
Test [1] has as its system U-87 MG. The test is described as follows: ATP luminescence proliferation assay, U-87 MG. In short, it runs like this: (§1)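 Antiproliferative EC50 values derive from luminescent ATP measurement in human tumor cells exposed for 48, 72 or 96 h to 1:3 serial dilutions of free compounds or their conjugates, with 1.0×10^3 cells seeded per well 3 h beforehand.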
In test [2] the test system is UO-31. The test can be described thus: ATP luminescence proliferation assay, UO-31. In short, it runs like this: as §1
The subject of test [3] is Nomo-1. The test can be described thus: ATP luminescence proliferation assay, Nomo-1. In short, it runs like this:
as §1

In test [4] the test system is NCI-H460. The test can be described thus: ATP luminescence proliferation assay, NCI-H460. A digest of the protocol:
as §1

The subject of test [5] is SKOV3. The test can be described thus: ATP luminescence proliferation assay, SKOV3. A digest of the protocol: as §1
For test [6], the system named is 786-O. The test is described as follows: ATP luminescence proliferation assay, 786-O. A digest of the protocol:
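Cells seeded at 1.0×10^3 cells/well for 3 h, then exposed to 1:3 serial dilutions of free compounds or conjugates for 48, 72 or 96 h, as noted. ATP measured by luminescent cell viability kit; EC50 taken as concentration reducing proliferation by 50%.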

Test [7] has as its system SKOV3. The test can be described thus: 3H thymidine proliferation assay, SKOV3. In short, it runs like this: (§2)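 Proliferation is read as incorporated ^3H-thymidine (1.0 μCi/well, final 24 h) after 72 h with 1:3 dilution series of free compound or conjugate; 1.0×10^4 cells/well. The EC50 is where proliferation falls by 50%.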
Test [8] concerns PC3. The test is described as follows: ATP luminescence proliferation assay, PC3. In short, it runs like this: as §1
For test [9], the system named is DMS53. The test is described as follows: ATP luminescence proliferation assay, DMS53. In short, it runs like this: as §1
Test [10] has as its system ZR-75. The test is described as follows: 3H thymidine proliferation assay, ZR-75. A digest of the protocol: as §2
The test system of test [11] is Raji. The test can be described thus: ATP luminescence proliferation assay, Raji. In short, it runs like this:
as §1

The test system of test [12] is U-87 MG. The test is described as follows: 3H thymidine proliferation assay, U-87 MG. In short, it runs like this: as §2
The test system of test [13] is LNCaP. The test can be described thus: 3H thymidine proliferation assay, LNCaP. In short, it runs like this:
as §2

Test [14] deals with CEM-C1. The test can be described thus: 3H thymidine proliferation assay, CEM-C1. In short, it runs like this: as §2
The test system of test [15] is SW-480. The test can be described thus: ATP luminescence proliferation assay, SW-480. In short, it runs like this: as §1
Test [16] has as its system RPMI-8226. The test can be described thus: 3H thymidine proliferation assay, RPMI-8226. In short, it runs like this:
as §2

The test system of test [17] is SK-BR3. The test can be described thus: 3H thymidine proliferation assay, SK-BR3. To be noted: 3H thymidine method, 72 h incubation. A digest of the protocol:
as §2

Test [18] concerns HPAC. The test can be described thus: 3H thymidine proliferation assay, HPAC. In short, it runs like this: as §2
Setting [19] is: Homo sapiens, 72 h, read-out: EC50 U-87 MG (72 h), ATP luminescence, U-87 MG, 72 h incubation.
The mark [20] stands for this setting: Homo sapiens, UO-31, 48 h, read-out: EC50 UO-31 (48 h), ATP luminescence, UO-31, 48 h incubation.
Setting [21] is: Homo sapiens, NOMO-1, 48 h, read-out: EC50 Nomo-1 (48 h), ATP luminescence, Nomo-1, 48 h incubation.
[22] abbreviates: Homo sapiens, NCI-H460, 72 h, read-out: EC50 NCI-H460 (72 h), ATP luminescence, NCI-H460, 72 h incubation.
The mark [23] stands for this setting: Homo sapiens, SK-OV-3, 72 h, read-out: EC50 SKOV3 (72 h), ATP luminescence, SKOV3, 72 h incubation.
Setting [24] is: Homo sapiens, 786-0, 72 h, read-out: EC50 786-O (72 h), ATP luminescence, 786-O, 72 h incubation.
Where [25] appears, read: Homo sapiens, SK-OV-3, read-out: EC50, SKOV3, 3H thymidine method, 72 h incubation.
Setting [26] is: Homo sapiens, PC-3, 48 h, read-out: EC50 PC3 (48 h), ATP luminescence, PC3, 48 h incubation.
[27] abbreviates: Homo sapiens, ZR75, read-out: EC50, ZR-75, 3H thymidine method, 72 h incubation.
Setting [28] is: Homo sapiens, 72 h, read-out: EC50 Raji (72 h), ATP luminescence, Raji, 72 h incubation.
Setting [29] is: Homo sapiens, U-87 MG, read-out: EC50, U-87 MG, 3H thymidine method, 72 h incubation.
Setting [30] is: Homo sapiens, LNCaP, read-out: EC50, LNCaP, 3H thymidine method, 72 h incubation.
Where [31] appears, read: Homo sapiens, CEM/C1, read-out: EC50, CEM-C1, 3H thymidine method, 72 h incubation.
Where [32] appears, read: Homo sapiens, SW480, 96 h, read-out: EC50 SW480 (96 h), ATP luminescence, SW480, 96 h incubation.
The mark [33] stands for this setting: Homo sapiens, RPMI-8226, read-out: EC50, RPMI-8226, 3H thymidine method, 72 h incubation.
The mark [34] stands for this setting: Homo sapiens, HPAC, read-out: EC50, HPAC, 3H thymidine method, 72 h incubation.
The mark [35] stands for this setting: ATP luminescence, 72 h incubation, read-out: EC50 U-87 MG (72 h).
[36] abbreviates: ATP luminescence, UO-31, 48 h incubation, read-out: EC50 UO-31 (48 h).
Setting [37] is: ATP luminescence, NCI-H460, 72 h incubation, read-out: EC50 NCI-H460 (72 h).
Where [38] appears, read: ATP luminescence, SKOV3, 72 h incubation, read-out: EC50 SKOV3 (72 h).
The mark [39] stands for this setting: ATP luminescence, 786-O, 72 h incubation, read-out: EC50 786-O (72 h).
[40] abbreviates: 3H thymidine method, 72 h incubation, read-out: EC50, SKOV3.
[41] abbreviates: ATP luminescence, PC3, 48 h incubation, read-out: EC50 PC3 (48 h).
Setting [42] is: ATP luminescence, DMS53, 72 h incubation, read-out: EC50 DMS53 (72 h).
The mark [43] stands for this setting: 3H thymidine method, 72 h incubation, read-out: EC50, ZR-75.
[44] abbreviates: ATP luminescence, 72 h incubation, read-out: EC50 Raji (72 h).
The mark [45] stands for this setting: 3H thymidine method, 72 h incubation, read-out: EC50, U-87 MG.
[46] abbreviates: 3H thymidine method, 72 h incubation, read-out: EC50, LNCaP.
[47] abbreviates: 3H thymidine method, 72 h incubation, read-out: EC50, CEM-C1.
Where [48] appears, read: ATP luminescence, SW480, 96 h incubation, read-out: EC50 SW480 (96 h).
The mark [49] stands for this setting: 3H thymidine method, 72 h incubation, read-out: EC50, RPMI-8226.
Setting [50] is: 3H thymidine method, 72 h incubation, read-out: EC50, HPAC.

Like-named read-outs stand apart in the source and are kept apart here.

In general, EC50 refers to the concentration at which the effect is half-maximal. Regarding `CC[C@H](C)[C@H](NC(=O)[C@H]1CCCCN1C)C(=O)N(C)[C@H](C[C@@H](OC)c1nc(C(=O)N[C@H](CCC(=O)OC)Cc2ccccc2)cs1)C(C)C` [Compound 26], the EC50 is 0.094 µM in test [1] (setting [19]); 0.24 µM in [2] (setting [20]); 0.0039 µM in test [3] (setting [21]); 0.09 µM in test [4] (setting [22]); 0.038 µM in test [5] (setting [23]); 0.126 µM in [6] (setting [24]). Moreover, the EC50 in test [7] (setting [25]) is 0.0046 µM; in test [8] (setting [26]), above 3 µM; in test [9] (Homo sapiens, DMS-53, 72 h, read-out: EC50 DMS53 (72 h), ATP luminescence, DMS53, 72 h incubation), 0.193 µM; in [10] (setting [27]) it was above 0.3 µM; in test [11] (setting [28]), 0.046 µM; in [12] (setting [29]), 0.0052 µM. Also, the EC50 in test [13] (setting [30]) was above 3 µM; in [14] (setting [31]) it was 0.022 µM; in test [15] (setting [32]), 0.067 µM; in test [16] (setting [33]), 0.0077 µM; in test [17] (Homo sapiens, SK-BR-3) it was 0.032 µM; in test [18] (setting [34]), 0.011 µM.
With `CC[C@H](C)[C@H](NC(=O)[C@H]1CCCCN1C)C(=O)N(COC)[C@H](C[C@@H](OC)c1nc(C(=O)N[C@@H](Cc2ccccc2)C(=O)OC)cs1)C(C)C` [Compound 29c], the EC50 was found to be 0.136 µM in [1] (setting [35]); 0.026 µM in [2] (setting [36]); 0.0029 µM in [3] (ATP luminescence, Nomo-1, 48 h incubation, read-out: EC50 Nomo-1 (48 h)); 0.006 µM in test [4] (setting [37]); 0.017 µM in test [5] (setting [38]); 0.034 µM in test [6] (setting [39]). The EC50 stood at 0.0019 µM in test [7] (setting [40]); 0.066 µM in test [8] (setting [41]); 0.017 µM in test [9] (setting [42]); 0.044 µM in [10] (setting [43]); 0.036 µM in [11] (setting [44]); 0.00051 µM in test [12] (setting [45]). Further, the half-maximal effective concentration (EC50) is 0.0052 µM in [13] (setting [46]); 0.045 µM in test [14] (setting [47]); 0.041 µM in [15] (setting [48]); 0.016 µM in test [16] (setting [49]); 0.072 µM in [17]; 0.032 µM in test [18] (setting [50]).
Take `CC[C@H](C)[C@H](NC(=O)[C@H]1CCCCN1C)C(=O)N(C)[C@H](C[C@@H](OC(C)=O)c1nc(C(=O)N[C@@H](Cc2ccc(N)cc2)CC(C)C(=O)O)cs1)C(C)C` (stereo partly drawn) [Compound 36]: the EC50 worked out at 0.037 µM in test [1] (setting [19]); 0.0088 µM in test [2] (setting [20]); 0.034 µM in [3] (setting [21]); 0.016 µM in test [4] (setting [22]); 0.045 µM in test [5] (setting [23]); 0.183 µM in test [6] (setting [24]). The EC50 is 0.032 µM in test [7] (setting [25]); 0.078 µM in test [8] (setting [26]); around 0.3 µM in test [9] (Homo sapiens, DMS-53, 48 h, read-out: EC50 DMS53 (48 h), ATP luminescence, DMS53, 48 h incubation); above 0.1 µM in test [10] (setting [27]); 0.024 µM in test [11] (setting [28]); 0.015 µM in test [12] (setting [29]). Moreover, the EC50 was 0.342 µM in test [13] (setting [30]); 0.044 µM in test [14] (setting [31]); 0.081 µM in [15] (setting [32]); 0.048 µM in test [16] (setting [33]); above 0.1 µM in test [17] (Homo sapiens, SK-BR-3); 0.083 µM in [18] (setting [34]).
Turning to `CC[C@H](C)[C@H](NC(=O)[C@H]1CCCCN1C)C(=O)N(C)[C@H](C[C@@H](OC)c1nc(C(=O)N[C@@H](Cc2ccc(N)cc2)CC(C)C(=O)O)cs1)C(C)C` (stereo partly drawn) [Compound 51], the EC50 is 0.0076 µM in test [1] (setting [35]); above 0.1 µM in [2] (setting [36]); 0.0074 µM in [3] (ATP luminescence, Nomo-1, 72 h incubation, read-out: EC50 Nomo-1 (72 h)); 0.014 µM in test [4] (setting [37]); 0.01 µM in test [5] (setting [38]); 0.019 µM in test [6] (setting [39]). In addition, the EC50 in test [7] (setting [40]) was determined as 0.0044 µM; in test [8] (setting [41]), 0.016 µM; in test [9] (setting [42]), 0.046 µM; in test [10] (setting [43]), 0.0013 µM; in [11] (setting [44]), 0.005 µM; in [12] (setting [45]) it was 0.00075 µM. For the same compound, the EC50 in [13] (setting [46]) is 0.041 µM; in test [14] (setting [47]) it was 0.002 µM; in test [15] (setting [48]), 0.013 µM; in test [16] (setting [49]), 0.0022 µM; in test [17], above 0.1 µM; in [18] (setting [50]), 0.0064 µM.
